In PMC10095864, “Targeting HIV-1 Reverse Transcriptase Using a Fragment-Based Approach” (Molecules, 2023):
Like-named read-outs stand apart in the source and are kept apart here.

Key:
[1] = molecular target: T1, recombinant WT HIV-1 RT (Human immunodeficiency virus type 1 group M subtype B, UniProt P03367); test: biochemical; details: for IC50: RT Inhibition—IC50 ± SEM, WT RT DDDP activity; for Ligand efficiency (LE): binding to WT RT, LE = −1.4(logIC50)/N; for fold improvement on parent compound B-1: IC50 vs B-1 IC50 >1000 μM in the radioactive RT assay
T1 construct: The p66/p51 HIV-1 RT heterodimer engineered with a N-terminal histidine tag; His tag (histidine tag) (N); made in house; host or cells: Escherichia coli strain M15 (vector pRT6H-PR)
Procedure: (§1) The inhibitory activity of all compounds was evaluated in vitro in assays that measure the DNA-dependent DNA polymerase (DDDP) activity of HIV-1 RT. Compounds were tested against recombinant WT and drug-resistant HIV-1 RT mutants (K103N, Y181C or K103N/Y181C). […] The IC50 value of nevirapine was determined in parallel to control for the performance of the assay. […] These RT mutations either reduce the rate of entry of NNRTIs to the binding pocket (K103N) or remove aromatic interactions that favor binding (Y181C). Initially, compound IC50 values were determined in an assay that quantifies DDDP activity mediated by HIV-1 RT using a radiolabeled ^33PdTTP substrate and more recently using a nonradioactive PicoGreen-based spectrophotometric assay.
(§2) Recombinant HIV-1 RT: The p66/p51 HIV-1 RT heterodimer engineered with a N-terminal histidine tag was expressed from the pRT6H-PR vector (provided by Nicolas Sluis-Cremer) which is based on pRT6H-PROT [37], except that the RT coding region is derived from the infectious molecular clone xxLAI [38]. This xxLAI clone contains the HIV-1LAI backbone and is engineered with silent mutations introducing Xma I and Xba I sites in the RT coding region at nucleotide positions 40–45 and 1470 to 1475, respectively. pRT6H-PR expressing the NNRTI drug-resistant mutations K103N, Y181C and K103N/Y181C were generated by subcloning Xma I/Xba I fragments in xxLAI harboring the desired NNRTI mutations (Giacobbi NS and Sluis-Cremer 2017 AAC) into the corresponding restriction sites in the RT coding region of p6HRT-PR. RT was expressed in Escherichia coli strain M15 and purified using Ni-NTA chromatography as previously described. RT concentrations were determined spectrophotometrically at 280 nm using an extinction coefficient (e280) of 260, 450 M^−1 cm^−1.
(§3) Nevirapine was included in assays as a positive control for inhibiting RT polymerase activity. The DDDP assay was performed by first adding 25 ng of HIV-1 RT to test compound in 96-well plates followed by initiating RT polymerase activity by adding 200 ng of activated calf thymus (ACT) DNA (Sigma Aldrich), 0.2 µCi ^33P-α-dTTP (Perkin Elmer), 50 mM Tris-HCl pH 7.8 50 mM KCl, […], 50 µM dNTP mix (Bioline), 0.1 mg/mL bovine serum albumin (New England Biolabs), 0.01% IGEPAL (Sigma) and 1 mM dithiothreitol. Reactions contained 2.5% dimethyl sulfoxide (DMSO). Following incubation at 37 °C for 10 min, samples from duplicate wells were applied to Whatman DE81 ion-exchange paper (GE Healthcare); dried membranes were washed in 2X saline-sodium citrate (SSC) buffer; and incorporated counts were quantified using an FLP-2000 phosphorimager (Fujifilm) or Typhoon Trio Phosphorimager (GE Healthcare) as published. Dose–response curves were generated using PRISM GraphPad version 8 by plotting the log transformed drug concentrations against percentage inhibition of DDDP activity compared to the no drug control using non-linear regression analysis.
(§4) Non-radioactive DDDP Assay: DDDP assays were also performed using a PicoGreen based spectrophotometric assay to detect double-stranded DNA synthesized by recombinant HIV-1 RT [15]. Assays were performed as described for the […] DDDP assay except that instead of ACT, the reaction contained 40 nM of a template/primer comprising a 200 nt DNA template (5′-[…] […]-3′) annealed to a 18 nucleotide DNA primer (5′-[…]-3′), 50 mM Tris-HCl pH 7.8, 50 mM KCl, 10 mM MgCl2 and 50 µM dNTP mix.

[2] = molecular target: T2, HIV-1 RT Y181C mutant (Human immunodeficiency virus type 1 group M subtype B, UniProt P03367, Y780C); test: DDDP activity assay, Y181C RT mutant; assay type: biochemical; details: PicoGreen or 33P radiolabeled assay, n ≥ 2, read-out: RT Inhibition—IC50 ± SEM, Y181C
T2 construct: The p66/p51 HIV-1 RT heterodimer engineered with a N-terminal histidine tag; His tag (histidine tag) (N); made in house; host or cells: Escherichia coli strain M15 (vector pRT6H-PR)
Procedure: as §1
Recombinant HIV-1 RT: The p66/p51 HIV-1 RT heterodimer engineered with a N-terminal histidine tag was expressed from the pRT6H-PR vector (provided by Nicolas Sluis-Cremer) which is based on pRT6H-PROT [37], except that the RT coding region is derived from the infectious molecular clone xxLAI [38]. […] RT concentrations were determined spectrophotometrically at 280 nm using an extinction coefficient (e280) of 260, 450 M^−1 cm^−1.
Nevirapine was included in assays as a positive control for inhibiting RT polymerase activity. […] Following incubation at 37 °C for 10 min, samples from duplicate wells were applied to Whatman DE81 ion-exchange paper (GE Healthcare); dried membranes were washed in 2X saline-sodium citrate (SSC) buffer; and incorporated counts were quantified using an FLP-2000 phosphorimager (Fujifilm) or Typhoon Trio Phosphorimager (GE Healthcare) as published. […]

[3] = molecular target: T3, His-tagged HIV-1 RT WT (Human immunodeficiency virus type 1 group M subtype B, UniProt P03367); test: Surface plasmon resonance, WT RT; assay type: binding
T3 construct: The p66/p51 HIV-1 RT heterodimer engineered with a N-terminal histidine tag; His tag (histidine tag) (N); made in house; host or cells: Escherichia coli strain M15 (vector pRT6H-PR)
Procedure: (§5) Compound binding to recombinant HIV-1 RT was measured by surface plasmon resonance (SPR). SPR is an optical biosensor detection method that involves passing an analyte (often a fragment) in a buffer solution over a gold surface chip with an immobilized protein (RT enzyme) and detecting the change in plasmon resonance angle which is dependent on the refractive index of the medium near the surface. As compounds bind to the target protein, the refractive index changes proportionally to the extent of binding. This can then be used to measure the association and dissociation kinetics of binding as well as the compound’s affinity for binding.
(§6) SPR assays were performed on a Biacore S200 (GE Healthcare). His-tagged RT (WT, K103N, Y181C or K103N/Y181C) was immobilized on the surface of a Biacore compatible NIHC 1500M (Xantec) chip according to manufacturer’s instructions. Following 3 injections 300 s each of 0.5 M EDTA, the chip surface was activated with a 120 s injection of 5 mM NiCl2 followed by a 2100 s injection of 130 nM RT. The final immobilization level of RT was typically 14,000–27,000 RU. SPR experiments were carried out at 25 °C using a flow rate of 50 µL/min in running buffer. The running buffer was 1.053 × (HBS pH 7.4 + 50 µM EDTA + 0.005% Tween-20). Compounds were provided as 200 mM stocks and diluted in running buffer to obtain the concentrations required for dose-response studies (0, 6.25, 12.5, 25, 50, 100 and 200 µM). Raw sensorgram data were analyzed using Biacore S200 Evaluation Software. Dose-response determinations were evaluated using a 1:1 binding model. KD values were determined by Biacore S200 Evaluation Software Version 1.0. assuming 1:1 binding. For compounds approaching saturation, Rmax was floated. For compounds with insufficient curvature, Rmax was fixed based on a control. Errors were determined as the standard error in the dose-response fit, as calculated by Biacore S200 Evaluation Software.

[4] = molecular target: T4, HIV-1 RT K103N/Y181C mutant (Human immunodeficiency virus type 1 group M subtype B, UniProt P03367, K702N/Y780C); test: DDDP activity assay, K103N/Y181C RT mutant; assay type: biochemical
T4 construct: The p66/p51 HIV-1 RT heterodimer engineered with a N-terminal histidine tag; His tag (histidine tag) (N); made in house; host or cells: Escherichia coli strain M15 (vector pRT6H-PR)
Procedure: as §1, §2, §3, §4

[5] = molecular target: T5, His-tagged HIV-1 RT K103N (Human immunodeficiency virus type 1 group M subtype B, UniProt P03367, K702N); test: Surface plasmon resonance, K103N RT; details: ± standard error of dose–response fit, n = 1; NB = no binding observed; read-out: SPR—KD, K103N
T5 construct: The p66/p51 HIV-1 RT heterodimer engineered with a N-terminal histidine tag; His tag (histidine tag) (N); made in house; host or cells: Escherichia coli strain M15 (vector pRT6H-PR)
Procedure: as §5, §6

[6] = WT (PicoGreen assay), nonradioactive PicoGreen assay
[7] = WT, PicoGreen or 33P radiolabeled assay, value not marked as PicoGreen, n ≥ 2
[8] = read-out: SPR—KD, WT, ± standard error of dose–response fit, n = 1, NB = no binding observed

Cc1ccnc2c1NC(=O)c1cccnc1N2C1CC1 [Nevirapine, nevirapine, reference compound]
IC50 [1, 6]: 0.44 ± 0.03 µM

CCOC(=O)c1cnn2cc(C)ccc12 [compound 4, Ethyl 6-Methylpyrazolo[1,5-a]pyridine-3-carboxylate]
IC50 [1, 7]: > 1000 µM

CCOC(=O)c1cnn2ccc(NC(=O)OC(C)(C)C)cc12 [compound 16, Ethyl 5-((Tert-butoxycarbonyl)amino)pyrazolo[1,5-a]pyridine-3-carboxylate]
IC50 [1, 7]: > 1000 µM

CCOC(=O)c1cnn2cc(Br)cc(OC)c12 [compound 13, Ethyl 6-Bromo-4-methoxypyrazolo[1,5-a]pyridine-3-carboxylate]
IC50 [1, 7]: > 1000 µM

CCOC(=O)c1cnn2cccc(C)c12 [compound 2, Ethyl 4-Methylpyrazolo[1,5-a]pyridine-3-carboxylate]
IC50 [1, 7]: 433 ± 166 µM | Ligand efficiency (LE) [1]: 0.31 kcal/mol/HA | IC50 [2]: > 333 µM | Kd [3]: 347 ± 23 µM

CCOC(=O)c1cnn2c(C)ccc(Br)c12 [compound 9, Ethyl 4-Bromo-7-methylpyrazolo[1,5-a]pyridine-3-carboxylate]
IC50 [1, 6]: 155 ± 19 µM | Ligand efficiency (LE) [1]: 0.33 kcal/mol/HA | Kd [3, 8]: > 200 µM

O=C(NCCc1ccc(O)cc1)c1cnn2cccc(Br)c12 [compound 22, 4-Bromo-N-(4-hydroxyphenethyl)pyrazolo[1,5-a]pyridine-3-carboxamide]
IC50 [1, 6]: 111 µM

CCCC#Cc1cccn2ncc(C(=O)OCC)c12 [compound 28, Ethyl 4-(pent-1-yn-1-yl)pyrazolo[1,5-a]pyridine-3-carboxylate]
fold improvement on parent compound B-1 [1]: > 20 fold | IC50 [1, 7]: 53 ± 4 µM | Ligand efficiency (LE) [1]: 0.32 kcal/mol/HA | IC50 [4]: 105 ± 6 µM | Kd [3]: 275 ± 9 µM

COC(=O)c1cnn2cccc(Br)c12 [compound 18, Methyl 4-Bromopyrazolo[1,5-a]pyridine-3-carboxylate]
IC50 [1, 6]: > 1000 µM

CCCOC(=O)c1cnn2cccc(Br)c12 [compound 19, Propyl 4-bromopyrazolo[1,5-a]pyridine-3-carboxylate]
IC50 [1, 6]: > 1000 µM

CCOC(=O)c1cnn2cccc(C#CCN(C)C)c12 [compound 24, Ethyl 4-(3-(Dimethylamino)prop-1-yn-1-yl)pyrazolo[1,5-a]pyridine-3-carboxylate]
IC50 [1, 7]: > 1000 µM

CCOC(=O)c1cnn2c(C)ccc(F)c12 [compound 11, Ethyl 4-Fluoro-7-methylpyrazolo[1,5-a]pyridine-3-carboxylate]
IC50 [1, 6]: > 1000 µM | Kd [3, 8]: > 200 µM

CCOC(=O)c1cnn2ccc(C)cc12 [compound 3, Ethyl 5-Methylpyrazolo[1,5-a]pyridine-3-carboxylate]
IC50 [1, 7]: > 1000 µM

CCOC(=O)c1cnn2c(C)cc(Cl)cc12 [compound 14, Ethyl 5-Chloro-7-methylpyrazolo[1,5-a]pyridine-3-carboxylate]
IC50 [1, 7]: > 1000 µM | Kd [3, 8]: > 200 µM

CCOC(=O)c1cnn2cc(OC)cc(Br)c12 [compound 10, Ethyl 4-Bromo-6-methoxypyrazolo[1,5-a]pyridine-3-carboxylate]
IC50 [1, 6]: 315 ± 19 µM | Ligand efficiency (LE) [1]: 0.29 kcal/mol/HA | Kd [3]: 1570 ± 105 µM | Kd [5]: 757 ± 81 µM

CCNC(=O)c1cnn2cccc(Br)c12 [compound 20, 4-Bromo-N-ethylpyrazolo[1,5-a]pyridine-3-carboxamide]
IC50 [1, 7]: > 1000 µM

CCOC(=O)c1cnn2c(C)ccc(Cl)c12 [compound 12, Ethyl 4-Chloro-7-methylpyrazolo[1,5-a]pyridine-3-carboxylate]
IC50 [1, 6]: > 1000 µM

C#Cc1cccn2ncc(C(=O)OCC)c12 [compound 29, Ethyl 4-ethynylpyrazolo[1,5-a]pyridine-3-carboxylate]
fold improvement on parent compound B-1 [1]: > 20 fold | IC50 [1, 7]: 27 ± 26 µM | Ligand efficiency (LE) [1]: 0.40 kcal/mol/HA | IC50 [4]: 43 ± 14 µM | Kd [3]: 395 ± 35 µM

O=C(O)c1cnn2cccc(Br)c12 [compound 17, 4-Bromopyrazolo[1,5-a]pyridine-3-carboxylic Acid]
IC50 [1, 7]: > 1000 µM | Kd [3, 8]: > 200 µM

CCOC(=O)c1cnn2cc(Br)ccc12 [compound 7, Ethyl 6-Bromopyrazolo[1,5-a]pyridine-3-carboxylate]
IC50 [1, 7]: > 1000 µM

CCOC(=O)c1cnn2cccc(C#CCCCCCO)c12 [compound 26, Ethyl 4-(7-Hydroxyhept-1-yn-1-yl)pyrazolo[1,5-a]pyridine-3-carboxylate]
fold improvement on parent compound B-1 [1]: > 20 fold | IC50 [1, 7]: 24 ± 6 µM | Ligand efficiency (LE) [1]: 0.30 kcal/mol/HA | IC50 [4]: 35 ± 7 µM | Kd [3]: 173 ± 9 µM | Kd [5]: 233 ± 22 µM

CCOC(=O)c1cnn2c(C)cccc12 [compound 5, Ethyl 7-Methylpyrazolo[1,5-a]pyridine-3-carboxylate]
IC50 [1, 7]: 470 ± 95 µM | Ligand efficiency (LE) [1]: 0.31 kcal/mol/HA | IC50 [2]: > 333 µM | Kd [3, 8]: > 200 µM

CCOC(=O)c1cnn2cccc(C#CCCO)c12 [compound 25, Ethyl 4-(4-Hydroxybut-1-yn-1-yl)pyrazolo[1,5-a]pyridine-3-carboxylate]
IC50 [1, 7]: > 1000 µM

CCOC(=O)c1cnn2ccc(C(=O)OC)cc12 [compound 15, 3-Ethyl 5-Methylpyrazolo[1,5-a]pyridine-3,5-dicarboxylate]
IC50 [1, 7]: > 1000 µM
